Key:
[1] = system: mice, methamphetamine-induced hyperlocomotion; assay: Locomotor activity, methamphetamine-induced hyperlocomotion; type: in vivo, mouse
Experimental: The locomotor activity of the mouse was measured by its interruptions of infra-red photobeans in a locomotor cage (42 cm×42 cm×36 cm) in the photobeam activity system (San Diego Instruments, San Diego, Calif.). After acclimation, the mouse was treated with ci extract or vehicle for 15 min, followed by ma (2 mg/kg). Then, the mouse was gently placed in the locomotor cage and the horizontal and vertical interruptions were counted every 5 min for 60 min. Total locomotor activity was the sum of interruptions within 60 min.
Mice were anaesthetized with sodium pentobarbital (60 mg/kg i.p.) And placed in a stereotaxic frame keeping the bregma-lambda axis horizontal. After shaving the hair and exposing the skull surface, the mouse was implanted with two 24-gauge stainless-steel guide cannulas, respectively, directing towards the right and left lateral cerebella (−6.4 mm caudal, ±1.5 mm lateral, −1.0 mm ventral from bregma) according to the stereotaxic coordinate of the mouse (Paxions 2001). The cannulas were fixed on the top of the skull by stainless steel screws and dental cement. The animal was allowed to fully recover after surgery for at least one week before the behavioral test was conducted.
On the day for behavioral tests, a 30-gauge injection cannula connected to a 1 μL hamilton syringe was inserted into the guide cannula for drug injection. The drug solution of 0.5 μL in each side was slowly infused with a microinfusion pump (kds311, kd scientific inc.) For 30 s with a further “hold” time for 60 s. The microinjection site was confirmed by the positive staining of trypan blue, which was injected through the cannula after behavioral tests. Data from mice with offsite injections were discarded.

mice, motor coordination = assay: Rotarod test; type: in vivo, mouse; details: 3 mg/kg, 15 min after treatment
Experimental: The motor coordinating activity of the mouse was measured by its performance on a rotarod in the sdi rotor-rodtm system (San Diego Instruments, San Diego, Calif.). The mouse was trained four times a day for 3 days until it could stay on the rotating drum at a rotating speed of 24 rpm for at least 120 sec. Then, the mouse was subjecting to the rotarod test at the rotating speed accelerating gradually from 0 to 30 rpm, and the latency to fall from the rotating drum was recorded. The cut-off time for the latency to fall was 300 sec. Animals were treated with the tested drug or vehicle for 15 min before receiving the test.

[2] = Half-life in liver microsomes (Example 4); type: in vitro ADME; details: rat and human liver microsomes, species of the value not stated
Description: Metabolic pathways that may disrupt the activity of compounds with aryl methoxy groups were investigated.

[3] = system: mice, forelimb grip strength; assay: Grip strength test; type: in vivo, mouse; details: 3 mg/kg, 15 min after treatment
Experimental: Forelimb grip strength was measured by the grip force of forepaws of the mouse using the sdi grip strength system (San Diego Instrument, San Diego, Calif.). The grip strength was recorded by the maximum of three permissible readings (in grams). The test was conducted every 2 min for three times, and the averaged grip strength was recorded. Animals were treated with the tested drug or vehicle for 15 min before the test.

IoN-CCl Wistar rats = assay: IoN-CCl model, face grooming during body grooming; type: in vivo, rat; details: 10 mg/kg i.p. daily; 10 min of recording
Experimental: Chronic constriction injury (CCl) is a common neuropathic pain model. The unilateral ligature of the infraorbital nerve (IoN) in rats, as an animal model of peripheral neuropathic pain, and more specifically, trigeminal neuralgia and trigeminal neuropathy, was performed as described by Desuere and Hans (Deseure et al. J. Vis. Exp. 2015, 103, e53167). Wistar rats (46 in total) were randomly assigned to one of four experimental groups and then were behaviorally tested in a blinded manner. For studying the effects of subchronic treatment with the nanoemulsion formulation of DK-I-56-1 in IoN-CCl rats, DK-I-56-1 (10 mg/kg i.p.) or its vehicle (placebo nanoemulsion i.p.) were injected daily for 14 consecutive days after surgery. Sham-operated rats were treated in parallel. By a procedure slightly modified from Djordjevic et al. (Int. J. Pharm. 2015, 493, 40-54), biocompatible nanoemulsions were prepared by high pressure homogenization at 50° C. […] First, the response to the application of a graded series of three von Frey filaments onto ipsilateral vibrissal pad was measured on pre-operative days −3 and −1 and post-operative days 7, 14, 21, and 28. […] The other parameter, face grooming during body grooming, was manually assessed during 10 min of recording on pre-operative day −2 and post-operative days 2, 4, 8, and 15 (i.e. after 1, 3, 7, and 14 applications of treatment). […]

[4] = Rapid equilibrium dialysis assay, free fraction; type: in vitro ADME; details: rat, read-out: free fraction in rat blood
Description: Five pharmacokinetic studies have been performed; four in male Wistar rats and one in male Swiss mice.

SMILES | effect of intra-cerebellum furosemide on the rescue of hyperlocomotion ([1]; furosemide 10 nmol) | methamphetamine-induced hyperlocomotion ([1]; mice, 3 mg/kg i.p., METH 2 mg/kg i.p., 60 min) | spontaneous motor activity ([1]; mice, 3 mg/kg i.p., saline instead of METH) | motor coordination in the rotarod test (mice, motor coordination) | half-life [2] [h] | grip strength [3] | face grooming during body grooming (IoN-CCl Wistar rats) | fraction unbound [4]
COc1ccc(-n2nc3c4ccc(OC)cc4[nH]cc-3c2=O)cc1 [Compound 6, 7-Methoxy-2-(4-methoxyphenyl)-2,5-dihydro-3H-pyrazolo[4,3-c]quinolin-3-one] | significantly antagonized | significantly rescued | did not affect | did not affect | 2.92 | did not affect | – | –
[2H]C([2H])([2H])Oc1ccc(-n2nc3c4ccc(OC)cc4[nH]cc-3c2=O)cc1 [DK-I-56-1, 7-Methoxy-2-(4-methoxy-d3-phenyl)-2,5-dihydro-3H-pyrazolo[4,3-c]quinolin-3-one] | – | – | – | – | – | – | lack of sedation-like or motor-impairing influences | < 0.005
